The structures appear in SMILES notation.

9 compounds from patent US8158021B2, “Polymerizable liquid crystal compound, polymerizable liquid crystal composition, liquid crystalline polymer, and optical anisotropic article” (Zeon Corporation, priority 2007, dated 2012) can be followed below.

Data set [1] can be described thus: Measurement of phase transition temperature (liquid crystallinity temperature range). It is filed as physicochemical. Here is the method:
The substrates were heated from 30° C. to 250° C. on a hot plate, and then cooled to 30° C. A change in structure during a change in temperature was observed using a polarization optical microscope (“ECLIPSE LV100POL” manufactured by Nikon Corporation) to measure the phase transition temperature.
In Table 1, “C” indicates “Crystal”, “N” indicates “Nematic”, and “I” indicates “Isotropic”.

Data set [2] in a line: Measurement of optical anisotropy (value Δn) of cured polymer film. It is filed as physicochemical. The following applies: cured polymer film 1.5 μm; retardation at 545.3 nm; Δn=Re/d. Here is the method:
2.7 parts of a photoinitiator (“Irgacure 907” manufactured by Ciba Specialty Chemicals Co., Ltd.) was then homogenously dissolved in the solution. The resulting solution was applied to a glass substrate provided with a rubbed polyimide alignment film using a bar coater (“SA-203” manufactured by Tester Sangyo Co., Ltd., Rod No. 4, shaft diameter: 12.7 mm). After drying the resulting film on a hot plate at 100° C. for two minutes, ultraviolet rays (700 mJ/cm^2) were applied to the film from a mercury lamp to obtain a cured polymer film having a thickness of 1.5 μm.
The retardation (Re) of the cured film at a wavelength of 545.3 nm was measured using an ellipsometer (“XLS-100” manufactured by J. A. Woollam). The thickness (d) of the liquid crystal layer was also measured, and the value Δn was calculated by “Δn=Re/d”.

Data set [3] can be described thus: Formation of cholesteric phase in cured liquid crystalline polymer film. It is filed as physicochemical. Further details: key: A case where a cholesteric phase was formed is indicated by “Formed”; a case where a cholesteric phase was not formed is indicated by “Not formed”. The note with it: composition with polymerizable chiral compound; cured film 4 μm; transmission spectrum. Here is the method:
The polymerizable liquid crystal composition solution was applied to a glass substrate provided with a rubbed polyimide alignment film using a bar coater (“SA-203” manufactured by Tester Sangyo Co., Ltd., Rod No. 8, shaft diameter: 12.7 mm). After drying the resulting film on a hot plate at 100° C. for three minutes, ultraviolet rays (1000 mJ/cm^2) were applied to the film from a mercury lamp to obtain a cured liquid crystalline polymer film having a thickness of 4 μm.
The transmission spectrum of the cured film was measured using a spectrophotometer (“MCPD-3000” manufactured by Otsuka Electronics Co., Ltd.). A selective reflection region (i.e., a region in which the transmittance was about 50%) was observed when a cholesteric phase was formed. The bandwidth was about 50 to 100 nm. A case where a cholesteric phase was formed is indicated by “Formed”, and a case where a cholesteric phase was not formed is indicated by “Not formed”.

Data set [4] in a line: Mutual solubility when forming the cured film. The note with it: at 23° C., naked eye observation of turbidity.
Description: When forming the cured film of the compound, the mutual solubility of the compound at 23° C. was evaluated by naked eye observation. A case where turbidity was not observed is indicated by “Good”, and a case where turbidity was observed is indicated by “Bad”.
A short description of data set [5]: Solubility in cyclopentanone. The note with it: in cyclopentanone at 60° C., compound concentration 40 wt %.
Description: The solubility of the compound at 60° C. was evaluated when preparing the solution having a compound concentration of 40 wt %.
Setting [6] is: heated from 30° C. to 250° C., then cooled to 30° C., polarization optical microscope.

As for `C=CC(=O)OCCCCCCOc1ccc(C(=O)Oc2ccc(C=NN=Cc3ccc(OC(=O)c4ccc(OCCCCCCOC(=O)C=C)cc4)c(OCC)c3)cc2)cc1` [Polymerizable liquid crystal compound 4], in data set [1] (setting [6]), the “Liquid crystallinity temperature range” value was 175 °C or more. This compound had a Δn in data set [2] of 0.199. In addition, the Cholesteric phase result in data set [3] is reported as “Formed”.
For `C=CC(=O)OCCCCOC(=O)Oc1ccc(C(=O)Oc2ccc(OC(=O)c3ccc(OC(=O)OCCCCOC(=O)C=C)cc3)c(C)c2)cc1` [compound 12], in data set [4], the Mutual solubility entry is recorded as “Good”. The “Liquid crystallinity temperature range” value in data set [1] (setting [6]) amounted to 63 °C. For the same compound, the Solubility entry in data set [5] is on record as “Good”. The compound further came in with a Δn in data set [2] of 0.100. The Cholesteric phase result in data set [3] is “Formed”.
For the compound `C=CC(=O)OCCCCCCOc1ccc(C(=O)Oc2ccc(C=NN=Cc3cc(OC)c(OC(=O)c4ccc(OCCCCCCOC(=O)C=C)cc4)c(OC)c3)cc2)cc1` [Polymerizable liquid crystal compound 5], the “Liquid crystallinity temperature range” value in data set [1] (setting [6]) is 155 °C or more. Besides, in data set [2], the Δn turned out to be 0.116. Further, the Cholesteric phase result in data set [3] is listed as “Formed”.
The corresponding values for `C=CC(=O)OCCCCOc1ccc(C(=O)Oc2ccc(C=NN=Cc3ccc(OC(=O)c4ccc(OCCCCOC(=O)C=C)cc4)c(OCC)c3)cc2)cc1` [Polymerizable liquid crystal compound 6] are 170 °C or more, 0.202 and “Formed”.
Regarding `C=CC(=O)OCCCCCCOc1ccc(C(=O)Oc2ccc(C=NN=Cc3ccc(OC(=O)c4ccc(OCCCCCCOC(=O)C=C)cc4)c(C(=O)OC)c3)cc2C(=O)OC)cc1` [Polymerizable liquid crystal compound 10], the “Liquid crystallinity temperature range” value in data set [1] (setting [6]) is 130 °C or more. Further, the Δn in data set [2] was 0.191. Also, in data set [3], the Cholesteric phase entry is given as “Formed”.
On the same counts, the results for `C=CC(=O)OCCCCCCOc1ccc(C(=O)Oc2ccc(C=NN=Cc3ccc(OC(=O)c4ccc(OCCCCCCOC(=O)C=C)cc4)c(C(=O)OCCOCCC)c3)cc2)cc1` [Polymerizable liquid crystal compound 3] are 190 °C or more, 0.176 and “Formed”.
The corresponding values for `C=CC(=O)OCCCCCCOc1ccc(C(=O)Oc2ccc(C=NN=Cc3ccc(OC(=O)c4ccc(OCCCCCCOC(=O)C=C)cc4)c(OCC)c3)cc2OCC)cc1` [Polymerizable liquid crystal compound 8] are 150 °C or more, 0.200 and “Formed”.
In the case of `C=CC(=O)OCCCCOC(=O)Oc1ccc(C(=O)Oc2ccc(OC(=O)c3ccc(OC(=O)OCCCCOC(=O)C=C)cc3)c(C)c2)cc1` [Polymerizable liquid crystal compound 12, reference compound], the “Liquid crystallinity temperature range” value in data set [1] (summary of Table 1) was “narrow temperature range”.
Regarding `C=CC(=O)OCCCCCCOc1ccc(C(=O)Oc2ccc(C=NN=Cc3ccc(OC(=O)c4ccc(OCCCCCCOC(=O)C=C)cc4)c(C(=O)OCCOC(=O)C=C)c3)cc2)cc1` [Polymerizable liquid crystal compound 7], the “Liquid crystallinity temperature range” value in data set [1] (setting [6]) is 125 °C or more. The Δn in data set [2] is reported as 0.187. Moreover, the Cholesteric phase entry in data set [3] is recorded as “Formed”.
